Measurements published in patent US20090130236A1, “ANTI-MICROBIAL AGENT AND ANTI-MICROBIAL COMPOSITION” (Hououdou Co., Ltd., priority 2002, published 2009).
Converted amounts (≈) assume the structure as drawn. Like-named read-outs stand apart in the source and are kept apart here.

Key:
[1] = test system: clinically isolated 26 strains of P. acnes; test: MIC, agar plate dilution, Test Example 10; assay type: cell-based, Propionibacterium acnes; conditions: reference data, not obtained through tests simultaneously carried out
[2] = test system: Staphylococcus spp. (44 Strains); test: MIC, agar plate dilution, Test Example 22; assay type: cell-based
Source text: Strains Used: There were used 44 strains of Staphylococcus spp. […] Sterilized distilled water was used in the dilution of the solution.

[3] = Cutibacterium acnes, read-out: MIC50
[4] = Cutibacterium acnes, read-out: MIC80
[5] = Staphylococcus, read-out: MIC50
[6] = Staphylococcus, read-out: MIC80

Row | SMILES | MIC50 [1, 3] | MIC80 [1, 4] | MIC50 [2, 5] | MIC80 [2, 6] | MIC50 [1] | MIC80 [1] | MIC50 [2] | MIC80 [2]
1 | CCC[C@@H]1C[C@@H](C(=O)N[C@@H]([C@H]2O[C@H](SC)[C@H](O)[C@@H](O)[C@H]2O)[C@H](C)Cl)N(C)C1 [CLDM, Clindamycin] |  |  |  |  | 0.10 µg/mL (≈ 0.235 µM) | 0.19 µg/mL (≈ 0.447 µM) | 0.10 µg/mL (≈ 0.235 µM) | >100 µg/mL
2 | CN(C)[C@@H]1C(=O)C(C(N)=O)=C(O)[C@@]2(O)C(=O)C3=C(O)c4c(O)cccc4[C@@](C)(O)[C@H]3C[C@@H]12 [TC, Tetracycline] |  |  |  |  | 0.19 µg/mL (≈ 0.428 µM) | 0.19 µg/mL (≈ 0.428 µM) | 0.39 µg/mL (≈ 0.878 µM) | 25 µg/mL (≈ 56.3 µM)

Further lines, with some results ahead:

Row | MIC50 [1, 3] | MIC80 [1, 4] | MIC50 [2, 5] | MIC80 [2, 6] | SMILES | MIC50 [1] | MIC80 [1] | MIC50 [2] | MIC80 [2]
3 | 0.05 µg/mL (≈ 0.109 µM) | 0.1 µg/mL (≈ 0.219 µM) | 0.1 µg/mL (≈ 0.219 µM) | 0.1 µg/mL (≈ 0.219 µM) | CN(C)c1ccc(O)c2c1C[C@H]1C[C@H]3[C@H](N(C)C)C(O)=C(C(N)=O)C(=O)[C@@]3(O)C(O)=C1C2=O [MINO, Minocycline] |  |  |  | 
4 | 0.19 µg/mL (≈ 0.527 µM) | 0.19 µg/mL (≈ 0.527 µM) | 0.05 µg/mL (≈ 0.139 µM) | 0.78 µg/mL (≈ 2.16 µM) | CC1CCc2c(N3CCC(O)CC3)c(F)cc3c(=O)c(C(=O)O)cn1c23 (centres unmarked) [NDFX, Nadifloxacin] |  |  |  | 
5 | 0.39 µg/mL (≈ 1.08 µM) | 0.39 µg/mL (≈ 1.08 µM) | 0.39 µg/mL (≈ 1.08 µM) | 0.78 µg/mL (≈ 2.16 µM) | CC1COc2c(N3CCN(C)CC3)c(F)cc3c(=O)c(C(=O)O)cn1c23 (centres unmarked) [OFLX, Ofloxacin] |  |  |  | 
